The text below walks through data of patent publication US11767330B2, “Citrate salt, pharmaceutical compositions, and methods of making and using the same” (Foghorn Therapeutics Inc., priority 2021, dated 2023).

Data set [1] concerns synovial sarcoma cell lines (SYO1, Yamato, HS-SY-II, and ASKA). Put plainly: Growth of synovial sarcoma cell lines, IncuCyte confluency / crystal violet / colony imaging (Example 2). The data set is classed as cell-based. To be noted: FIGS. 4, 5, 6. On the procedure:
(§1) Cells were treated with DMSO or the BRD9 degrader, Compound 1, at indicated concentrations, and proliferation was monitored from day 7 to day 14 by measuring confluency overtime using an IncuCyte live cell analysis system (FIG. 4). Growth medium and compounds were refreshed every 3-4 days.
(§2) Cells were seeded into 12-well plates and treated with DMSO, 1 μM BRD9 inhibitor, Compound 2 (also known as BI-7273, see Martin et al, J Med Chem. 59(10):4462-4475 (2016); see structure of compound 2 below), or 1 μM BRD9 degrader, Compound 1.
(§3) The number of cells was optimized for each cell line. Growth medium and compounds were refreshed every 3-5 days. SYO1, Yamato, A549, 293T and HS-SY-II cells were fixed and stained at day 11. ASKA cells were fixed and stained at day 23. Staining was done by incubation with crystal violet solution (0.5 g Crystal Violet, 27 ml 37% Formaldehyde, 100 mL 10×PBS, 10 mL Methanol, 863 dH20 to 1 L) for 30 min followed by 3× washes with water and drying the plates for at least 24 h at room temperature. Subsequently plates were scanned on an Odyssey CLx Imaging system (FIG. 5).
(§4) Cells were seeded into 96-well ultra-low cluster plate (Costar, #7007) in 200 μL complete media and treated at day 2 with DMSO, Staurosporin, or BRD9 degrader, Compound 1, at indicated doses (FIG. 2C). Media and compounds were changed every 5 d and cell colonies were imaged at day 14.

The subject of data set [2] is non-synovial control cancer cell lines (293T, A549, G401). Put plainly: Growth of non-synovial control cancer cell lines (Example 2). Type of data set: cell-based. On the procedure: as §1, §2, §3, §4
Data set [3] relates to synovial sarcoma cell lines (SYO1, HS-SY-II, and ASKA). Put plainly: Growth of synovial sarcoma cell lines, crystal violet day 14 (Example 3). The data set is classed as cell-based. The conditions noted are these: daily treatment. On the procedure: (§5) Procedure: Cells were seeded into 6-well or 12-well plates and were treated daily with a BRD9 degrader (Compound 1), a bromo-domain BRD9 binder (Compound 2), E3 ligase binder (lenalidomide), DMSO, or staurosporin (positive control for cell killing), at indicated concentrations. The number of cells was optimized for each cell line. Growth media was refreshed every 5 days. By day 14, medium was removed, cells were washed with PBS, and stained using 500 μL of 0.005% (w/v) crystal violet solution in 25% (v/v) methanol for at least 1 hour at room temperature. Subsequently plates were scanned on an Odyssey CLx Imaging system.

The test system of data set [4] is non-synovial control cancer cell lines (RD, HCT116, and Calu6). Put plainly: Growth of non-synovial control cancer cell lines, crystal violet day 14 (Example 3). Type of data set: cell-based. To be noted: daily treatment. On the procedure: as §5
A short description of data set [5]: Interconversion between Enantiomer 1 and Enantiomer 2 in cell medium (chiral LC/MS-MS). The data set is classed as physicochemical. The conditions noted are these: 0.2 μM dosed enantiomer, cell medium 37° C. On the procedure: For the assessment of interconversion between Enantiomer 1 and Enantiomer 2 in cell medium, the following test was performed. […] At designated time point, aliquot (50 μL) was taken and processed by the addition of 150 μL of acetonitrile containing 0.1% formic acid and internal standard for LC/MS-MS analysis. Peak areas of both Enantiomer 1 and Enantiomer 2 were determined for each sample using a chiral specific analytical method.

For data set [6], the target named is T1, BRD9 (Homo sapiens, UniProt Q9H8M2).
T1 sequence (Q9H8M2 1-597): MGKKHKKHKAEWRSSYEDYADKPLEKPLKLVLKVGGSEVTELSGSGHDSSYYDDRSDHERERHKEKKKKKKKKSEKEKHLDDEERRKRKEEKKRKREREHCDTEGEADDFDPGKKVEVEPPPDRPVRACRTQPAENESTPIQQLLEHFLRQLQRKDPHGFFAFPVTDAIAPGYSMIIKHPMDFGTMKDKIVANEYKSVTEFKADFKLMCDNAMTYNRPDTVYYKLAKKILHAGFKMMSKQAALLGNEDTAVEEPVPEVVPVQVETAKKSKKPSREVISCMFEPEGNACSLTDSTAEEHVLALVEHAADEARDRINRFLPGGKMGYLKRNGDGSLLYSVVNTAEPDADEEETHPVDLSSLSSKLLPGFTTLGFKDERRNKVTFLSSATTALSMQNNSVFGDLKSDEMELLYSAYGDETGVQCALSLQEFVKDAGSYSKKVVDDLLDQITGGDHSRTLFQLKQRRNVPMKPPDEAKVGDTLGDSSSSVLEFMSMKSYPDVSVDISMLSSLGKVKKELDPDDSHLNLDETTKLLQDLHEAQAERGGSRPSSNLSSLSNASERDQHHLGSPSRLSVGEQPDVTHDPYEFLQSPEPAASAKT
Put plainly: Pharmacodynamic BRD9 level in SYO-1 xenograft, western blot (Example 14). The data set is classed as in vivo, mice. The arrangement: Tumors were lysed with 1×RIPA lysis buffer; from tissue; host or cells: SYO-1 xenograft tumours in BALB/c Nude mice. To be noted: SYO-1 Xenograft model; for pharmacodynamic activity, BRD9 protein level by western blot: BALB/c Nude mice, single dose i.v. (Table 6).

The target in data set [7] is T1, BRD9. Put plainly: BRD9 degradation western blot in ASKA cells (Example 13). Also on record: degradation endogenous BRD9 protein in two synovial sarcoma cell lines; endogenous in cells; host or cells: ASKA synovial sarcoma cells. The conditions noted are these: for DC50: read-out: Fitted DC50. Type of data set: cell-based. On the procedure: […] Cells were then harvested, washed with cold PBS, and frozen in cell pellets at −80° C. Lysates were prepared by resuspending thawed pellets in 1×RIPA Lysis and Extraction buffer (Thermo Fisher, Cat #89900) with 1× Halt™ Protease and Phosphatase Inhibitor Cocktail, EDTA-free (Thermo Fisher, Cat #78441) and 1:1000 dilution Pierce™ Universal Nuclease for Cell Lysis 25 ku (Thermo Fisher, Cat #88700). Lysates were incubated on ice for 10 minutes and then centrifuged in 4° C. at maximum speed (15,000 rpm) for 10 minutes. Samples were then analyzed for total protein using BCA protein quantification assay and diluted to 1 μg/μL with lysis buffer and 1× NuPAGE™ LDS Sample Buffer (4×) (Thermo Fisher, Cat #NP0007) and 1×DTT from 30× stock (Cell Signaling Technologies, Cat #14265S). Samples with 20-25 ug of total protein were loaded into 4-12% Bis-Tris Mini-Gel with 1×MES Running buffer and run at 150V for 45 minutes. Gels were transferred using Trans-Blot® Turbo™ Transfer System (semi-dry) at 25V for 10 minutes (High MW setting) on nitrocellulose blots. Blots were blocked in 5% milk in TBST for 1 hour and probed with BRD9 antibody (Bethyl Labs, Cat #A303-781A, 1:750 for SYO1, and Cell Signaling Technologies, Cat #71232S for ASKA) and beta-Actin antibody (Cell Signaling Technologies, Cat #3700, 1:2,000) overnight at 4° C. The next day, blots were washed in TBST 3× and probed with 1:5,000 IRDye® 680LT Goat anti-Rabbit IgG Secondary Antibody (LiCOR, Cat #926-68021) and 1:10,000 IRDye® 800CW Goat anti-Mouse IgG Secondary Antibody (LiCOR, Cat #926-32210) in LiCOR Odyssey® Blocking Buffer (TBS) for 1 hour at room temperature. Blots were washed in TBST 3× and scanned at […] wavelength using LiCOR Odyssey® CLx Imaging System. Western blot signal was quantified using same analyses program included in the same machine. BRD9 signal was quantified by normalizing to beta-actin signal and all samples were normalized to DMSO, set as 100% signal.

For data set [8], the target named is T1, BRD9. Put plainly: BRD9 degradation western blot in SYO-1 cells (Example 13). Type of data set: cell-based. Also on record: degradation endogenous BRD9 protein in two synovial sarcoma cell lines; endogenous in cells; host or cells: SYO1 (SYO-1) synovial sarcoma cells. To be noted: for DC50: read-out: Fitted DC50; for degradation of endogenous BRD9 protein at early time point: two synovial sarcoma cell lines (SYO-1 and ASKA). On the procedure:
Synovial sarcoma cells were plated in 6-well plate at […] cells/well and treated with serial concentrations of BRD9 degrader (10 nM top concentration, diluted 1:3) the next day for two time points at 37° C. Cells were then harvested, washed with cold PBS, and frozen in cell pellets at −80° C. Lysates were prepared by resuspending thawed pellets in 1×RIPA Lysis and Extraction buffer (Thermo Fisher, Cat #89900) with 1× Halt™ Protease and Phosphatase Inhibitor Cocktail, EDTA-free (Thermo Fisher, Cat #78441) and 1:1000 dilution Pierce™ Universal Nuclease for Cell Lysis 25 ku (Thermo Fisher, Cat #88700). Lysates were incubated on ice for 10 minutes and then centrifuged in 4° C. at maximum speed (15,000 rpm) for 10 minutes. Samples were then analyzed for total protein using BCA protein quantification assay and diluted to 1 μg/μL with lysis buffer and 1× NuPAGE™ LDS Sample Buffer (4×) (Thermo Fisher, Cat #NP0007) and 1×DTT from 30× stock (Cell Signaling Technologies, Cat #14265S). Samples with 20-25 ug of total protein were loaded into 4-12% Bis-Tris Mini-Gel with 1×MES Running buffer and run at 150V for 45 minutes. Gels were transferred using Trans-Blot® Turbo™ Transfer System (semi-dry) at 25V for 10 minutes (High MW setting) on nitrocellulose blots. Blots were blocked in 5% milk in TBST for 1 hour and probed with BRD9 antibody (Bethyl Labs, Cat #A303-781A, 1:750 for SYO1, and Cell Signaling Technologies, Cat #71232S for ASKA) and beta-Actin antibody (Cell Signaling Technologies, Cat #3700, 1:2,000) overnight at 4° C. The next day, blots were washed in TBST 3× and probed with 1:5,000 IRDye® 680LT Goat anti-Rabbit IgG Secondary Antibody (LiCOR, Cat #926-68021) and 1:10,000 IRDye® 800CW Goat anti-Mouse IgG Secondary Antibody (LiCOR, Cat #926-32210) in LiCOR Odyssey® Blocking Buffer (TBS) for 1 hour at room temperature. Blots were washed in TBST 3× and scanned at […] wavelength using LiCOR Odyssey® CLx Imaging System. Western blot signal was quantified using same analyses program included in the same machine. BRD9 signal was quantified by normalizing to beta-actin signal and all samples were normalized to DMSO, set as 100% signal.

The structures appear in SMILES notation. “Also recorded” adds a separate entry of the source. A value given as a limit tells only on which side of the number the result lay.

As for `COc1cc(-c2cn(C)c(=O)c3cnccc23)cc(OC)c1CN(C)C` [Compound 2], the “growth of synovial sarcoma cell lines” value in data set [1] and in data set [3] was “inhibition of the growth of the cells” throughout. Besides, the “growth of non-synovial control cancer cell lines” value is “does not result in inhibition of the growth” in data set [2] and “did not result in inhibition of the growth” in data set [4].
As to `COc1cc(-c2cn(C)c(=O)c3cnc(N4CCC4)cc23)cc(OC)c1CN1CCC(CN2CCC3(CC2)CN(c2ccc4c(c2)C(=O)N([C@H]2CCC(=O)NC2=O)C4)C3)CC1` (single isomer, unassigned; enantiomer 1) [Enantiomer 1], the “% Enantiomer 2” value in data set [5] (2 h) was found to be 12%; in data set [5] (6 h) it was 30%. Besides, at BRD9 [6], the “pharmacodynamic activity, BRD9 protein level by western blot” value was “inactive and did not degrade BRD9 protein”. Moreover, the DC50 is above 10 nM on BRD9 [7] (0.5 h); 0.38 nM on BRD9 [7] (2 h); 2.8 nM at BRD9 [8] (SYO-1, 1 h); 0.066 nM at BRD9 [8] (SYO-1, 6 h). Further, the BRD9 degradation activity entry on BRD9 [7] (30 minutes, up to 10 μM) is reported as “no discernable activity”. Besides, the “degradation of endogenous BRD9 protein at early time point” value on BRD9 [8] was “largely inactive or with much reduced degradation potency”.
Consider `COc1cc(-c2cn(C)c(=O)c3cnc(N4CCC4)cc23)cc(OC)c1CN1CCC(CN2CCC3(CC2)CN(c2ccc4c(c2)C(=O)N([C@@H]2CCC(=O)NC2=O)C4)C3)CC1` (single isomer, unassigned; enantiomer 2) [Enantiomer 2], for which the “% Enantiomer 2” value in data set [5] (0 h) was 99%; in data set [5] (0.5 h), 95%; in data set [5] (2 h) it was 82%; in data set [5] (6 h) it was 63%. Besides, at BRD9 [6], the “pharmacodynamic activity, BRD9 protein level by western blot” value is “significant activity; also recorded: equipotent to racemic compound D1”. In addition, the “duration of BRD9 degradation after a single dose” value at BRD9 [6] (single dose i.v.) is “degraded BRD9 up to 72 hours after a single dose”. Moreover, the DC50 on BRD9 [7] (0.5 h) was 0.34 nM; at BRD9 [7] (2 h) it was 0.012 nM; at BRD9 [8] (SYO-1, 1 h), 0.092 nM; at BRD9 [8] (SYO-1, 6 h), 0.023 nM. The “difference in DC50 between Enantiomer 1 and Enantiomer 2” value at BRD9 [7] (2 h) was “about 32 fold”; on BRD9 [8] (SYO1, 6 h), “ca. 3 fold”. The “BRD9 degradation compared to racemic compound D1” value at BRD9 [8] (SYO-1, 1 or 6 hours (FIGS. 16 and 17)) was “slightly better than its racemic parent compound D1 in degrading BRD9 but overall comparable”. Moreover, the “active enantiomer in degrading BRD9 in cells” value at BRD9 [8] (overall conclusion of Example 13) is given as “active enantiomer”. Besides, the “degradation of endogenous BRD9 protein at early time point” value at BRD9 [8] is reported as “much more potent”.
